According to patent EP0993437B1, “2-(4-BROMO OR 4-IODO PHENYLAMINO) BENZOIC ACID DERIVATIVES AND THEIR USE AS MEK INHIBITORS” (Warner-Lambert Company LLC, priority 1997, dated 1999):

Molecular target: MEK
Assay: Cascade assay for inhibitors of the MAP kinase pathway (In Vitro)
Type: biochemical
Procedure: Incorporation of ^32P into myelin basic protein (MBP) was assayed in the presence of a glutathione S-transferase fusion protein containing p44MAP kinase (GST-MAPK) and a glutathione S-transferase fusion protein containing p45MEK (GST-MEK). The assay solution contained 20 mM HEPES, pH 7.4, 10 mM MgCl2, 1-mM MnCl2, 1 mM EGTA, 50 µM [γ-^32P]ATP, 10 µg GST-MEK, 0.5 µg GST-MAPK and 40 µg MBP in a final volume of 100 µL. […] Compounds were assessed at 10 µM for ability to inhibit incorporation of ^32P.
To ascertain whether compounds were inhibiting GST-MEK or GST MAPK, two additional protocols were employed. In the first protocol, compounds were added to tubes containing GST-MEK, followed by addition of GST-MAPK, MBP and [γ-^32P]ATP.

| Compound | IC50 |
| --- | --- |
| 5-Bromo-3,4-difluoro-2-(4-iodo-2-methyl-phenylamino)-N-(2-piperidin-1-yl-ethyl)-benzamide [Example 55] | 114 nM |
| 5-Bromo-3,4-difluoro-N-(2-hydroxy-ethyl)-2-(4-iodo-2-methyl-phenylamino)-benzamide [Example 53] | 47 nM |
| 5-Fluoro-N-{3-[4-(2-hydroxy-ethyl)-piperazin-1-yl]-propyl}-2-(4-iodo-2-methyl-phenylamino)-benzamide [Example 90] | 604 nM |
| O=C(O)c1cc(Cl)ccc1Nc1ccc(I)cc1Cl [Example 5, 5-Chloro-2-(2-chloro-4-iodo-phenylamino)-benzoic acid] | 66 nM |
| Cc1cc(I)ccc1Nc1ccc(Br)cc1C(=O)O [Example 8, 5-Bromo-2-(4-iodo-2-methyl-phenylamino)-benzoic acid] | 86 nM |
| Cc1cc(I)ccc1Nc1ccc([N+](=O)[O-])cc1C(=O)O [Example 11, 2-(4-Iodo-2-methyl-phenylamino)-5-nitro-benzoic acid] | 128 nM |
| O=C(O)c1cc([N+](=O)[O-])ccc1Nc1ccc(I)cc1F [Example 12, 2-(2-Fluoro-4-iodo-phenylamino)-5-nitro-benzoic acid] | 135 nM |
| Cc1cc(Br)ccc1Nc1cc(F)ccc1C(=O)O [Example 13, 2-(4-Bromo-2-methyl-phenylamino)-4-fluoro-benzoic acid] | 178 nM |
| Cc1cc(Br)ccc1Nc1c(C(=O)O)ccc(F)c1F [Example 15, 2-(4-Bromo-2-methyl-phenylamino)-3,4-difluoro-benzoic acid] | 194 nM |
| Cc1cc(I)ccc1Nc1c(F)cccc1C(=O)O [Example 16, 3-Fluoro-2-(4-iodo-2-methyl-phenylamino)-benzoic acid] | 323 nM |
| Cc1cc(I)ccc1Nc1cc(Cl)ccc1C(=O)O [Example 18, 4-Chloro-2-(4-iodo-2-methyl-phenylamino)-benzoic acid] | 446 nM |
| Cc1cc(I)ccc1Nc1ccc(F)cc1C(=O)O [Example 20, 5-Fluoro-2-(4-iodo-2-methyl-phenylamino)-benzoic acid] | 557 nM |
| Cc1cc(I)ccc1Nc1ccc(I)cc1C(=O)O [Example 21, 5-Iodo-2-(4-iodo-2-methyl-phenylamino)-benzoic acid] | 569 nM |
| Cc1c(Nc2cc(F)ccc2C(=O)O)ccc(I)c1Cl [Example 23, 4-Fluoro-2-(3-chloro-4-iodo-2-methyl-phenylamino)-benzoic acid] | 1590 nM |
| COc1ccc(Nc2ccc(I)cc2)c(C(=O)O)c1 [Example 24, 2-(4-Iodo-phenylamino)-5-methoxy-benzoic acid] | 1940 nM |
| O=C(O)c1cccc(Cl)c1Nc1ccc(I)cc1Cl [Example 25, 3-Chloro-2-(2-chloro-4-iodo-phenylamino)-benzoic acid] | 2360 nM |
| Cc1cc(I)ccc1Nc1cccc(Cl)c1C(=O)O [Example 29, 2-Chloro-6-(4-iodo-2-methyl-phenylamino)-benzoic acid] | 5330 nM |

| Compound | IC50 |
| --- | --- |
| Cc1cc(I)ccc1Nc1cc(F)ccc1C(N)=O [Example 33, 4-Fluoro-2-(4-iodo-2-methyl-phenylamino)-benzamide] | 52 nM |
| Cc1cc(I)ccc1Nc1cc(F)ccc1C(=O)N(C)C [Example 36, 4-Fluoro-2-(4-iodo-2-methyl-phenylamino)-N,N-dimethyl-benzamide] | 129 nM |
| Cc1cc(I)ccc1Nc1cc(F)ccc1C(=O)Nc1nnn[nH]1 [Example 37, 4-Fluoro-2-(4-iodo-2-methyl-phenylamino)-N-(1H-tetrazol-5-yl)-benzamide] | 237 nM |
| Cc1cc(I)ccc1Nc1ccc(Br)cc1C(N)=O [Example 38, 5-Bromo-2-(4-iodo-2-methyl-phenylamino)-benzamide] | 412 nM |
| Cc1cc(I)ccc1Nc1ccc(Cl)cc1C(=O)N(C)C [Example 39, 5-Chloro-2-(4-iodo-2-methyl-phenylamino)-N,N-dimethyl-benzamide] | 497 nM |
| Cc1cc(I)ccc1Nc1ccc(Cl)cc1C(=O)NCC(=O)O [Example 40] | 651 nM |
| CCCNC(=O)c1ccc(F)cc1Nc1ccc(I)cc1C [Example 41, 4-Fluoro-2-(4-iodo-2-methyl-phenylamino)-N-propyl-benzamide] | 872 nM |
| Cc1cc(I)ccc1Nc1cc(F)ccc1C(=O)NCCCN1CCN(CCO)CC1 [Example 44, 4-Fluoro-N-{3-[4-(2-hydroxy-ethyl)-piperazin-1-yl]-propyl}-2-(4-iodo-2-methyl-phenylamino)-benzamide] | 1480 nM |
| CCN(CC)C(=O)c1cc([N+](=O)[O-])ccc1Nc1ccc(I)cc1C [Example 45, N,N-Diethyl-2-(4-iodo-2-methyl-phenylamino)-5-nitro-benzamide] | 1760 nM |
| CCN(CC)C(=O)c1cc(Cl)ccc1Nc1ccc(I)cc1C [Example 47, 5-Chloro-N,N-diethyl-2-(4-iodo-2-methyl-phenylamino)-benzamide] | 1910 nM |
| Cc1cc(I)ccc1Nc1ccc(Br)cc1C(=O)N(C)C [Example 48, 5-Bromo-2-(4-iodo-2-methyl-phenylamino)-N,N-dimethyl-benzamide] | 1940 nM |
| Cc1cc(I)ccc1Nc1ccc(Br)cc1CO [Example 52, [5-Bromo-2-(4-iodo-2-methyl-phenylamino)-phenyl]-methanol] | 2350 nM |
| Cc1cc(I)ccc1Nc1ccc(Br)cc1C(=O)NCCCN1CCN(CCO)CC1 [Example 92, 5-Bromo-N-{3-[4-(2-hydroxy-ethyl)-piperazin-1-yl]-propyl}-2-(4-iodo-2-methyl-phenylamino)-benzamide] | 253 nM |
| CCN(CC)CCNC(=O)c1cc(Cl)ccc1Nc1ccc(I)cc1C [Example 93, 5-Chloro-N-(2-diethylamino-ethyl)-2-(4-iodo-2-methyl-phenylamino)-benzamide] | 521 nM |
| Cc1cc(I)ccc1Nc1ccc(Cl)cc1C(=O)NCCN1CCCC1 [Example 96, 5-Chloro-2-(4-iodo-2-methyl-phenylamino)-N-(2-pyrrolidin-1-yl-ethyl)-benzamide] | 374 nM |
| Cc1cc(I)ccc1Nc1ccc(Br)cc1C(=O)N1CCC(O)C1 (stereo not drawn) [Example 100, [5-Bromo-2-(4-iodo-2-methyl-phenylamino)-phenyl]-(3-hydroxy-pyrrolidin-1-yl)-] | 1990 nM |
| Cc1cc(I)ccc1Nc1ccc([N+](=O)[O-])cc1C(=O)NC1CCCCC1 [Example 184, N-Cyclohexyl-2-(4-iodo-2-methyl-phenylamino)-5-nitro-benzamide] | 278 nM |

The remaining lines, values ahead:

| IC50 | Compound |
| --- | --- |
| 19 nM | Cc1cc(I)ccc1Nc1cc(F)ccc1C(=O)O [Example 1, 4-Fluoro-2-(4-iodo-2-methylphenylamino)benzoic acid] |
| 71 nM | Cc1cc(I)ccc1Nc1ccc(Cl)cc1C(=O)O [Example 6, 5-Chloro-2-(4-iodo-2-methyl-phenylamino)-benzoic acid] |
| 97 nM | O=C(O)c1cc([N+](=O)[O-])ccc1Nc1ccc(I)cc1Cl [Example 9, 2-(2-Chloro-4-iodo-phenylamino)-5-nitro-benzoic acid] |
| 101 nM | Cc1c(Nc2cc(F)ccc2C(=O)O)ccc(I)c1F [Example 10, 4-Fluoro-2-(3-fluoro-4-iodo-2-methyl-phenylamino)-benzoic acid] |
| 179 nM | O=C(O)c1cc([N+](=O)[O-])ccc1Nc1ccc(I)cc1Br [Example 14, 2-(2-Bromo-4-iodo-phenylamino)-5-nitro-benzoic acid] |
| 434 nM | COc1cc(I)ccc1Nc1c(C(=O)O)ccc(F)c1F [Example 17, 3,4-Difluoro-2-(4-iodo-2-methoxy-phenylamino)-benzoic acid] |
| 3670 nM | Cc1ccc(Nc2ccc(I)cc2C)c(C(=O)O)c1 [Example 28, 5-Methyl-2-(4-iodo-2-methyl-phenylamino)-benzoic acid] |
| 226 nM | Cc1cc(I)ccc1Nc1ccc(Cl)cc1C(=O)NCCO [Example 31, 5-Chloro-N-(2-hydroxyethyl)-2-(4-iodo-2-methyl-phenylamino)-benzamide] |
| 28 nM | COc1ccc(NC(=O)c2ccc(OC)c([N+](=O)[O-])c2)cc1 [Example 32, 4-Methoxy-N-(4-methoxy-phenyl)-3-nitro-benzamide] |
| 98 nM | CNC(=O)c1ccc(F)cc1Nc1ccc(I)cc1C [Example 34, 4-Fluoro-2-(4-iodo-2-methyl-phenylamino)-N-methyl-benzamide] |
| 121 nM | CCNC(=O)c1ccc(F)cc1Nc1ccc(I)cc1C [Example 35, N-Ethyl-4-fluoro-2-(4-iodo-2-methyl-phenylamino)-benzamide] |
| 920 nM | Cc1cc(I)ccc1Nc1ccc(Br)cc1C(=O)NCCO [Example 42, 5-Bromo-N-(2-hydroxy-ethyl)-2-(4-iodo-2-methyl-phenylamino)-benzamide] |
| > 1000 nM | CCN(CC)C(=O)c1ccc(F)cc1Nc1ccc(I)cc1C [Example 43, N,N-Diethyl-4-fluoro-2-(4-iodo-2-methyl-phenylamino)-benzamide] |
| 1810 nM | CCCCNC(=O)c1ccc(F)cc1Nc1ccc(I)cc1C [Example 46, N-Butyl-4-fluoro-2-(4-iodo-2-methyl-phenylamino)-benzamide] |
| 179 nM | Cc1cc(I)ccc1Nc1ccc(Cl)cc1CO [Example 50, [5-Chloro-2-(4-iodo-2-methyl-phenylamino)-phenyl]-methanol] |
| 887 nM | Cc1cc(I)ccc1Nc1ccc([N+](=O)[O-])cc1CO [Example 51, [2-(4-Iodo-2-methyl-phenylamino)-5-nitro-phenyl]-methanol] |
| 1000 nM | Cc1cc(I)ccc1Nc1ccc([N+](=O)[O-])cc1C(=O)N1CCC(O)C1 (stereo not drawn) [Example 95, (3-Hydroxy-pyrrolidin-1-yl)-[2-(4-iodo-2-methyl-phenylamino)-5-nitro-phenyl]-methanone] |
